The values that follow come from patent publication US12396959B2, “Thermoresponsive hydrogel containing polymer microparticles for noninvasive ocular drug delivery” (University of Pittsburgh—Of the Commonwealth System of …, priority 2013, dated 2025).

Series [1] deals with New Zealand White rabbits. The series can be described thus: Post-mortem T1-weighted MRI after intravitreal injection of Gd-DOTA in thermoresponsive hydrogel. The series is classed as in vivo, rabbit. The note with it: 24 h after intravitreal injection. Here is the method: Scans were performed within one hour of sacrifice. Soluble Gd-DOTA without MP encapsulation was largely cleared from the injection site at 24 h, with only 56% and 59% signal intensity (relative to nearby muscle tissue) in the vitreous and anterior chamber, respectively. […] The spatiotemporal distribution of Gd-DOTA into the rest of the eye will also provide valuable data for future controlled release formulations of other ocular therapeutics, such as those targeting the posterior segment of the eye.

The nature of series [2]: Loading and release of other drugs from microparticles embedded within the gel. The series is classed as physicochemical. From the text: The loading and release of other drugs (moxiflxacin and vancomycin) with the microparticles embedded within the gel has also been confirmed.
The conditions of series [3]: in vivo; cited from earlier work.

Turning to `O=C([O-])CN1CCN(CC(=O)[O-])CCN(CC(=O)O)CCN(CC(=O)[O-])CC1.[Gd+3]` [Soluble Gd-DOTA, gadolinium-tetraazocyclododecanetetraacetic acid], in series [1], the “signal intensity relative to nearby muscle tissue, anterior chamber” value is on record as 59% and the “signal intensity relative to nearby muscle tissue, vitreous” value is recorded as 56%.

Consider `CN[C@H](CC(C)C)C(=O)N[C@H]1C(=O)N[C@@H](CC(N)=O)C(=O)N[C@H]2C(=O)N[C@H]3C(=O)N[C@H](C(=O)N[C@H](C(=O)O)c4cc(O)cc(O)c4-c4cc3ccc4O)[C@H](O)c3ccc(c(Cl)c3)Oc3cc2cc(c3O[C@@H]2O[C@H](CO)[C@@H](O)[C@H](O)[C@H]2O[C@H]2C[C@](C)(N)[C@H](O)[C@H](C)O2)Oc2ccc(cc2Cl)[C@H]1O` [vancomycin], for which the “loading and release with microparticles embedded within the gel” value in series [2] is given as “confirmed”.

As for `O=C([O-])CN(CCN(CC(=O)[O-])CC(=O)O)CCN(CC(=O)[O-])CC(=O)O.[Gd+3]` [Gd-DTPA], in series [3], the ocular half-life is 28.08 min.

Consider Brimonidine tartrate [BT], for which, in series [3], the ocular half-life is listed as 28.2 min.
